# Laboratory results: patent publication US6821774B1, “Compositions and methods for increasing cholesterol efflux and raising HDL using ATP binding cassette transporter ABC1” (CV Therapeutics, Inc., priority 1999, dated 2004)
# Assays:
# Format in all cases: cell-based, mouse
# [1] = system: ABC1 promoter; assay: pAPR1 luciferase reporter assay (ABC1 promoter) in RAW 264.7 cells; details: 24 hours
# Text: Construction of Reporter Plasmids: Plasmid pGL3-Basic (Promega, Madison, Wis.; Cat. #E1751) was used as a control plasmid containing the promoter less luciferase gene. The reporter construct containing the ABC1 promoter and luciferase gene was made by cloning a genomic fragment from the 5′ flanking region of the ABC1 gene (hAPR1 5′ promoter, corresponding to nucleotides 1080-1643 of SEQ ID NO: 3) into the SacI site of the GL3-Basic plasmid to generate plasmid GL-6a. Next, plasmid GL-6a was digested with SpeI and Acc65I. […]
# Luciferase Assay: Following transfection, the cells in each well were lysed in 70 μl of 1× cell lysis reagent (Promega, Madison, Wis., Cat. #E3971), subjected to one freeze-thaw cycle, and the lysate cleared by centrifugation for 5 minutes at 12,000 g. […] The luciferase activity of each lysate was measured as light units using a luminometer. Additionally, the β-galactosidase activity of each lysate was measured using the chemiluminescent assay reagents supplied in the Galacto-light kit according to the manufacturer's instructions (Tropix Inc., Bedford, Mass.: Cat. #BL100G). The normalized luciferase activity for each lysate was determined by dividing the luciferase activity value by the determined β-galactosidase value and reported as relative light units. […]
# [2] = system: RAW 264.7 cells; assay: Apo A-I-mediated cholesterol efflux assay in cholesterol-loaded RAW 264.7 macrophage cells
# Procedure: To determine whether ligands for nuclear receptors affect the process of apolipoprotein-mediated cholesterol efflux, various ligands were tested using the apo A-I-mediated cholesterol efflux assay described in Example 12. The nuclear receptor superfamily includes several members, such as the liver receptor LXR, the retinoid receptor RXR, and the peroxisome proliferator-activated receptor PPAR, which have been implicated in lipid metabolism (Russell. D. W., Cell, 97:539-542 (1999); Spiegelman, B. W., Cell, 93:153-155 (1998); Janowski et al., Nature, 383:728-731 (1996)). […] Using the above-described assay, 9 cis-retinoic acid (RXR ligand), oxysterol (LXR ligand), and fenfibrate (PPAR ligand) was tested to determine the effect on cholesterol efflux.
# To determine whether eicosanoids affect the process of apolipoprotein-mediated cholesterol efflux, PGE1 and PG12 were tested using the apo A-I-mediated cholesterol efflux assay described in Example 12.
# [3] = system: 5′ flanking region of ABC1; assay: Luciferase reporter assay with ABC1 5′ flanking region constructs in RAW 264.7 cells; details: wild-type sequence nucleotides 1080-1643; single ligand or both together
# Procedure: (§1) Luciferase Assay: Following transfection, the cells in each well were lysed in 70 μl of 1× cell lysis reagent (Promega, Madison, Wis., Cat. #E3971), subjected to one freeze-thaw cycle, and the lysate cleared by centrifugation for 5 minutes at 12,000 g. After centrifugation, 100 μl of luciferase assay reagent (Promega, Madison, Wis.; Cat. #E1501) was added to 10 μl of lysate. The luciferase activity of each lysate was measured as light units using a luminometer. Additionally, the β-galactosidase activity of each lysate was measured using the chemiluminescent assay reagents supplied in the Galacto-light kit according to the manufacturer's instructions (Tropix Inc., Bedford, Mass.: Cat. #BL100G). The normalized luciferase activity for each lysate was determined by dividing the luciferase activity value by the determined β-galactosidase value and reported as relative light units.
# Construction of Reporter Constructs: Reporter construct pAPR1 and control reporter construct pGL3-Basic were obtained as described in Example 15. […]
# Transfection of Reporter Constructs: The RAW 264.7 cells were maintained in culture and transfected with either pGL3-Basic (1 μg), pAPR1 (1 μg), or one of the other reporter constructs according to the method described in Example 15. […] The luciferase activity was measured and reported as relative light units as described in Example 15.
# [4] = system: ABC1 mRNA; assay: ABC1 mRNA expression by RT-PCR in RAW 264.7 cells; details: 10 μM, 24 hours, serum-free DMEM/BSA
# Procedure: RT-PCR: Quantitative PCR was carried out using the GeneAmp 5700 Sequence Detection System (Perkin-Elmer Applied Biosystems, Foster City, Calif.). Briefly, 500 ng of DNase-treated mRNA was reverse transcribed using random hexamer primers at 2.5 μM. Approximately 5% of this reaction was amplified by PCR using the SYBR green core kit (PE Applied Biosystems, Foster City, Calif.; Cat. #4304886) and human ABC1 primers LF: 5′-[…] (SEQ ID NO: 11) and LR: 5′-[…] (SEQ ID NO: 12) to yield an 82 bp fragment corresponding to nucleotides 7018-7099 of human ABC1. PCR cycle conditions were as follows: 10 minutes 95° C.; followed by 40 cycles of 95° C., 15 seconds; and 60° C., 60 secounds. The mRNA in each sample was quantitated by detecting the increase in fluorescence caused by SYBR green binding to the double-stranded amplification product generated during each PCR cycle. All samples were run in triplicate and normalized against β-actin mRNA, amplified in parallel reactions with primers actinF: 5′-[…] (SEQ ID NO: 54) and actinB: 5′-[…] […]
# Mouse RAW 264.7 cells were grown to subconfluence in DMEM/10% FBS and then treated for 24 hours in serum-free DMEM/BSA with either 9-cis retinoic acid (10 μM), 20-hydroxycholesterol (10 μM), or both ligands together (20 μM total). […] RNA was extracted, treated with DNase, and ABC1 mRNA measured by RT-PCR using PE Biosystems SYBR Green Technology as described in Example 9.
# [5] = system: mutated sterol response element of ABC1 5′ flanking region; assay: Luciferase reporter assay with mutated sterol response element construct (nucleotides 1080-1643) in RAW 264.7 cells; details: mutated sequence; oxysterol 10 μM
# Procedure: as §1
# Transfection of Reporter Constructs: The RAW 264.7 cells were maintained in culture and transfected with either pGL3-Basic (1 μg), pAPR1 (1 μg), or one of the other reporter constructs according to the method described in Example 15. […] The luciferase activity was measured and reported as relative light units as described in Example 15. […]
smiles,measurement,setting,value
CC1=C(/C=C/C(C)=C\C=C\C(C)=C\C(=O)O)C(C)(C)CCC1 [9-cis retinoic acid],increase in luciferase activity compared with EtOH control,[1]; 9-cis RA 10 μM,16 fold
same,increase in apoAI-induced cholesterol efflux,"[2]; 30 ng/ml, cholesterol-loaded mouse macrophage cells",~3 fold
same,dose dependence of cholesterol efflux from macrophage cells,"[2]; 0.3, 3.0 or 30 ng/ml",dose-dependent manner
same,cholesterol efflux,[2]; apo A-I and 9 cis-retinoic acid 30 ng/ml,16%
same,cholesterol efflux counts,[2]; apo A-I plus 0.3 ng/ml 9-cis-RA,1522 c.p.m.
same,cholesterol efflux counts,[2]; apo A-I plus 3.0 ng/ml 9-cis-RA,3568 c.p.m.
same,cholesterol efflux counts,[2]; apo A-I plus 30 ng/ml 9-cis-RA,8597 c.p.m.
same,transcriptional response (luciferase activity),[3],produced a transcritional response
same,change in ABC1 mRNA expression,[4],increase in ABC1 mRNA expression
CC(C)CCC[C@](C)(O)[C@H]1CC[C@H]2[C@@H]3CC=C4C[C@@H](O)CC[C@]4(C)[C@H]3CC[C@@]21C [20(S)-hydroxycholesterol],increase in luciferase reporter activity compared with EtOH control,[1]; 20(S) OH-chol 10 μM,19 fold
same,transcriptional response (luciferase activity),[3],produced a transcritional response
same,transcriptional response (luciferase activity),[5],did not produce a transcriptional response
same,change in ABC1 mRNA expression,[4],increase in ABC1 mRNA expression
CC(C)CC[C@@H](O)[C@@H](C)[C@H]1CC[C@H]2[C@@H]3CC=C4C[C@@H](O)CC[C@]4(C)[C@H]3CC[C@]12C [22(R)-hydroxycholesterol],increase in apoAI-induced cholesterol efflux,"[2]; 5 μg/ml, cholesterol-loaded mouse macrophage cells",~3 fold
same,effect on cholesterol efflux (data not shown),"[2]; similar assay, RAW 264.7 cells cholesterol-loaded for 48 hours",increase cholesterol efflux
same,transcriptional response (luciferase activity),[5],did not produce a transcriptional response
"CCCCC[C@H](O)/C=C/[C@@H]1[C@H]2C/C(=C/CCCC(=O)O)O[C@H]2C[C@H]1O [PG12, prostacyclin]",increase in apoAI-induced cholesterol efflux,"[2]; 25 nm, cholesterol-loaded mouse macrophage cells",~2 fold
same,cholesterol efflux,[2]; apo A-I and PG12 25 nm,10%
"CCCCC[C@H](O)/C=C/[C@H]1[C@H](O)CC(=O)[C@@H]1CCCCCCC(=O)O [PGE1, prostaglandin E1]",increase in apoAI-induced cholesterol efflux,"[2]; 25 nM, cholesterol-loaded mouse macrophage cells",~3 fold
same,cholesterol efflux,[2]; apo A-I and PGE1 25 nM,15%
CC(C)OC(=O)C(C)(C)Oc1ccc(C(=O)c2ccc(Cl)cc2)cc1 [fenfibrate],increase in cholesterol efflux,"[2]; 3 μg/ml, cholesterol-loaded mouse macrophage cells",~2 fold
same,cholesterol efflux,[2]; apo A-I and fenfibrate 3 μg/ml,10%
